From a melting point compilation (Tetko et al.; mined from patent text by program, amines drawn as free bases though some values may be those of a salt) come the findings set out here.

Broadly, the melting point is the temperature, or range, at which the solid turns liquid. Take `O=Cc1c(O)c(Cl)cc(Cl)c1OCCCCC(=O)O`: the melting point was 85 to 87 °C.

`CCOC(=O)c1c(CN(CC)CC)nc2cc(OC)c(OC)cc2c1-c1ccc(OC)c(OC)c1`: the melting point is 130 to 131 °C.

In the case of `COc1ccc2c(c1)CCC1C3CC4OCCOC4C3(C)CC(=O)C21C` (stereo unspecified), the melting point lay within 142 to 145 °C.

`O=C1C=C(C(=O)c2ccccc2[N+](=O)[O-])CC(c2ccccc2)N1` (stereo unspecified): the melting point was 139 to 141 °C.

As for `BrCC1(c2ccc3c(c2)Cc2ccccc2-3)OCCO1`, the melting point was 90 °C.

Molecule `CC(=O)OCc1ccc(Sc2ccccc2C(=O)N(C)C)c([N+](=O)[O-])c1` returned a melting point of 117 to 118 °C.

Consider `CCCCNS(=O)(=O)C[C@@H](O)C(O)[C@@H](CC1CCCCC1)NC(=O)[C@@H](N)CC(C)C` (relative stereo), for which the melting point was 99 to 109 °C.

On to `FCc1cccc(-c2ccc(-c3cn([C@H]4CN5CCC4CC5)nn3)s2)c1`, for which the melting point was determined as 144 °C.

Consider `Nc1nc(Nc2ccc(S(N)(=O)=O)cc2)sc1C(=O)c1c(Cl)cc(C(F)(F)F)cc1Cl`, for which the melting point fell in the range of 294 to 296 °C.

Regarding `COc1nc(NC(=O)NS(=O)(=O)Oc2ccccc2-c2ccon2)nc(OC)n1`, the melting point lay in the range of 166 to 168 °C.

`CC(C)(C)OC(=O)[C@@H]1CS[C@H](c2cccnc2)N1C(=O)CNC(=O)Nc1cccc(C(=O)O)c1` had a melting point of 147 °C.

For the molecule `CC(=O)NC[C@H]1CN(c2ccc(C(=O)c3cnc4c([N+](=O)[O-])cccn34)cc2)C(=O)O1`, the melting point was in the range of 229 to 230 °C.

`COC(=N[N+](=O)[O-])NCc1cnc(Cl)s1` had a melting point of 133 to 135 °C.

The molecule `CC(=O)c1ccc(/C=C(\C)c2ccc3c(c2)C(C)(C)CC3(C)C)cc1` gave a melting point of 130 to 131 °C.

`COC(=O)c1c(C(F)F)nc(C(F)(F)F)c(C(=O)OC)c1CC(C)C` gave a melting point of 36 to 37 °C.

The molecule `CC(C)(C)C(=O)Oc1cc(-c2oc3ccccc3c(=O)c2C(=O)N2CCN(c3ccccn3)CC2)cc(OC(=O)C(C)(C)C)c1OC(=O)C(C)(C)C` displayed a melting point of 120 to 125 °C.

For `CCN1CCc2cc(Nc3ncc(Cl)c(Nc4ccccc4C(=O)NC)n3)c(OC)cc2CC1`, the melting point was in the range of 195 to 211 °C.

In the case of `O=[N+]([O-])c1cccc(Nc2nc(Cl)nc(NC3CCCCCC3)n2)c1`, the melting point came to 82 °C.

Take `COc1cc2c(cc1C(F)(F)F)N(C(=O)Nc1ccc(Cl)c(-c3cccnc3)c1)CC2`: the melting point lay in the range of 210 to 213 °C.

Consider `CNC(=O)C(CC(=O)N(CC(=O)NO)CC(C)C)CC(C)C` (stereo unspecified), for which the melting point is 60.5 to 61.5 °C.

Regarding `CCOCC1OC(n2cnc3c(NCc4cccc(I)c4)nc(Cl)nc32)C(O)C1O` (stereo unspecified), the melting point was 80 to 82 °C.

As to `CC(=O)OC1CSC(Oc2ccc3c(c2)nnn3C)C(OC(C)=O)C1OC(C)=O` (stereo unspecified), the melting point came out at 80 °C.

As for `CC1(C)C(=O)Nc2cc3[nH]c(-c4ccccc4)nc3cc21`, the melting point lay within 195 to 220 °C.

For the molecule `O=C(O)c1ccc(C(F)(F)F)nc1C=CCCl`, the melting point was in the range of 137 to 138 °C.

For the molecule `CCOc1cc(C)ccc1C1CCN(CCCCNC(=O)c2ccc(NC(=O)c3ccc(Cl)cc3)cc2)CC1`, the melting point turned out to be 254 °C.

Regarding `COc1ccc(-n2cc(C(=O)O)c(=O)c3cc(F)c(F)c(F)c32)cc1`, the melting point is 252 to 254 °C.

Molecule `COc1cc2cc(C(=O)O)[nH]c2cc1OCCCl` had a melting point of 187 to 189 °C.

Consider `Cc1ccc(C(=O)Nc2ccc(CN3CCOCC3)c(C(F)(F)F)c2)cc1-c1ccc2cnncc2c1`, for which the melting point is 147 to 151 °C.

On to `CCC#CCOc1cc2c(cc1/C=C/c1ccc(C(=O)O)cc1)C(C)(C)CCC2(C)C`, for which the melting point was 144 to 145 °C.

The molecule `CCN(C(C)=O)c1cccc(-c2ccnc3c([N+](=O)[O-])cnn23)c1` came in with a melting point of 176 to 178 °C.

Molecule `COc1cc(COc2nn(-c3ccccc3)cc2/C=C/c2coc(C(C)(C)C)n2)ccc1OCc1nc(-c2ccc(CC(=O)O)cc2)oc1C` returned a melting point of 104 to 106 °C.

Consider `COc1ccc(C(C#Cc2cccc(-c3nnc(C)o3)c2)CC(=O)O)cc1OC1CCCC1` (racemic), for which the melting point is 110 to 114 °C.

In turn, `CS(=O)(=O)c1ccc(-c2cnn(CC(F)(F)F)c(=O)c2Nc2ccc(F)cc2)cc1` had a melting point of 158 to 160 °C.

`N#CCCNC(=O)C1=CC(CF)(CF)Oc2ccc([N+](=O)[O-])cc21`: the melting point fell in the range of 173 to 174 °C.

For the molecule `C#CCCOc1cc(N2C(=O)CC(C(F)(F)F)CC2=O)c(F)cc1Cl`, the melting point lay within 89 to 91 °C.

For the molecule `O=C(CCN1CCN(c2ccccc2)CC1)Nc1ccc(O)cc1`, the melting point is 172 to 174 °C.

`NC(=O)NCCS(=O)Cc1ccccc1` (stereo unspecified): the melting point is 110 °C.

Molecule `FC1=COC(COCc2ccccc2)C(COCc2ccccc2)O1` (stereo unspecified) had a melting point of 61.5 to 63 °C.

For `COCc1cn2c(C)c(C)nc2c2c1C(=O)[C@H](O)[C@@H](c1ccccc1)N2`, the melting point is 206 to 208 °C.

For the molecule `COc1ccccc1Sc1ccc2c(c1)CC[C@H]1NC(=O)CC[C@]21C`, the melting point lay within 176 to 179 °C.

`CN(C)c1ccc(NC(=O)N(CC2CCCCC2)C[C@H]2CC[C@H](CN(CC3CCCCC3)C(=O)Nc3ccc(N(C)C)cc3)CC2)cc1` came in with a melting point of 210 to 212 °C.

The molecule `Cc1cccc(C)c1Nc1nc(-c2nc3ccc(C(F)(F)F)cc3[nH]2)cs1` yielded a melting point of 250 to 251 °C.

In the case of `COCC(=O)OCc1c(C)n(Cc2ccccc2)c2c(OCc3ccc(F)cc3)nncc12`, the melting point is 119 to 121 °C.

Take `CC(=O)Nc1c(C(=O)c2cccc(C)n2)[nH]c2cc(Cl)ccc12`: the melting point lay within 195 to 196 °C.

In the case of `COc1ccc(S(=O)(=O)Nc2cc(C(F)(F)F)ccc2Oc2ccccc2C(=O)O)cc1`, the melting point stood at 139 °C.

On to `CN(C)C(=O)c1nc(-c2cccnc2)nc2c1[nH]c(=O)n2-c1ccccc1`, for which the melting point was 250 to 252 °C.

Molecule `Cn1nc(-c2c(F)cccc2F)nc1-c1ccc(OCc2ccc(C(F)(F)F)cc2)c(Cl)c1` displayed a melting point of 171 to 177 °C.

As to `COc1cc2c(c(Cl)c1Cl)C(=O)C(C)(C)C2c1ccccc1` (stereo unspecified), the melting point lay within 146 to 148 °C.

Take `COc1ccc(C=CC(=O)C=Cc2ccc(OC)c(OC)c2)cc1OC`: the melting point lay within 68 to 70 °C.

`CCCCCCCC/C(=C\C=C\C(=O)O)c1ccc(OC)cc1` yielded a melting point of 109 to 110 °C.

For `O=C1NCC(Cc2ccccc2-c2ccccc2)O1` (stereo unspecified), the melting point was 146 to 148 °C.

`Cc1c(C)c2c(c(C)c1N)C(c1ccc(C(C)C)cc1)C1(CCN(C)CC1)O2` (stereo unspecified) registered a melting point of 123 to 124 °C.

On to `COc1ccc(S(=O)C(C(=O)NO)c2ccccc2)cc1` (stereo unspecified), for which the melting point turned out to be 135 °C.

With `O=CN1CCN(C2=C(Cl)C(=O)c3nsnc3C2=O)CC1`, the melting point lay within 191 to 194 °C.

`COc1c(C)c(C)c(OC)c(C(O)(c2ccc(N3CCOCC3)cc2)C(C)C)c1C` (stereo unspecified) had a melting point of 191 to 193 °C.

`CP1(=O)OCc2ccccc21` (stereo unspecified): the melting point was 70 to 72 °C.

`Clc1cc(CCCn2ccnc2)ccc1OCc1coc(-c2cccs2)n1` displayed a melting point of 93 to 94 °C.

In the case of `COc1ccc(-c2coc3cc(OC)cc(OC)c3c2=O)c(OC)c1`, the melting point was 202 to 204 °C.

`O=C1CN(C(=O)Cl)C(c2ccccc2)c2cc(Cl)ccc2N1` (stereo unspecified) had a melting point of 181 to 184 °C.

`CC1(C)CCc2c(N3CCOCC3)nc3sc4c(NCCc5ccccn5)ncnc4c3c2C1` came in with a melting point of 238 to 239 °C.

Regarding `Clc1ccc(OCc2ccc3ccccc3n2)cc1`, the melting point was in the range of 92 to 94 °C.

As for `COC(=O)C(C)n1nnc2ccc(OCc3ccccc3)cc21` (stereo unspecified), the melting point was in the range of 88 to 91.5 °C.

`CCCN(CCC)c1ccc(S(=O)(=O)N2CCCCC2=O)cc1`: the melting point fell in the range of 105 to 108 °C.

In turn, `Cn1cc(C2=C(c3c4n(c5ccccc35)CCC(C#N)C4)C(=O)NC2=O)c2ccccc21` (stereo unspecified) returned a melting point of 312 to 313 °C.

As for `O=S1(=O)c2cccc3cccc(c23)N1CCN1CCC(CC2=Cc3ccccc3C2)CC1`, the melting point is 176 °C.

As to `Cc1nc(N(C)c2cc(Cl)cc(Cl)c2)sc1-c1ccnc(Nc2ccc(N3CCOCC3)cc2)n1`, the melting point was 216 to 218 °C.

`CC1(O)C(O)C(CO)OC1n1ccc2c(N)ncnc21` (stereo unspecified): the melting point amounted to 222 °C.

Turning to `CC(C)(O)c1nnc2ccc(-c3c(-c4ccc(F)cc4F)nc4n3CCC4)nn12`, the melting point lay within 222 to 223 °C.

`CC(C)(C)c1cc(C=C(C#N)C#N)cc(Cl)c1O` showed a melting point of 173 °C.

`CN1C(=O)CCC2(C)c3ccc(-c4ccccc4)cc3CCC12` (single isomer, unassigned; (+)) registered a melting point of 155 °C.

`COc1ccc(C)cc1NC(=O)Nc1ccc(N2CCN(C(=O)Nc3ncccc3C(=O)O)CC2)cc1`: the melting point was in the range of 165 to 168 °C.

As for `OCc1ccc(-c2nn(Cc3ccccc3)c3ccccc23)o1`, the melting point lay in the range of 108 to 109 °C.

As for `OC(CNC1=NCCN1)c1cccc(Cl)c1` (stereo unspecified), the melting point was 108 °C.

For the molecule `COC(=O)C(=O)c1cn2c3c(cccc13)C(Br)CC2` (stereo unspecified), the melting point is 120 to 122 °C.

Molecule `CC(C)C1N(CC(N)=O)C(=O)CN1C(=O)CN` (stereo unspecified) came in with a melting point of 205 to 211 °C.

With `Cc1ccc(Sc2ncnc3c(C)csc23)cc1`, the melting point fell in the range of 103 to 107 °C.

Consider `Sc1nc(CCCC2CCCCC2)c[nH]1`, for which the melting point fell in the range of 176 to 177 °C.

As for `C=C(C)CN1Cc2cc(Cl)cc3[nH]c(=S)n(c23)[C@@H](C)C1`, the melting point amounted to 171 °C.

The molecule `COC1=CC(=O)[C@H](C(=O)O[C@@H]2C[C@H](C)CC[C@H]2C(C)C)[C@@H](C)C1` returned a melting point of 78 to 80 °C.

`CCOCc1cc2cc(Cl)ccc2oc1=O` registered a melting point of 100 to 101 °C.

The molecule `CCN(CC)CCNC(=O)c1cc(I)cc2cc3ccccc3nc12` came in with a melting point of 108 to 110 °C.

Molecule `O=[N+]([O-])c1ccc(CN2CCc3ccccc32)cc1` showed a melting point of 95 to 97 °C.

The molecule `COCC(C)(C)Cc1cc(N(C)C)ccn1` yielded a melting point of 56 to 58 °C.

`Cn1ncnc1COc1nc2c(-c3ccc(F)cc3)nncn2c1-c1ccccc1` displayed a melting point of 130 °C.

Molecule `CCCCCCc1ccc(OCCCCCCCCCCCCCCCC(=O)NCCO)cc1O` registered a melting point of 96.4 °C.

In the case of `COc1ccc(OC)c(Cc2c(C)c3c(N)nc(N)nc3[nH]c2=O)c1`, the melting point lay within 325 to 326 °C.
